Values joined by “and” are separate entries in the source; they are usually repeats but may differ in a detail not shown here. Identical values can stand only once.
Legend:
Type in all cases: in vivo, Mus musculus
HepG2 tumor = assay: Example 1: tumor volume, tumor weight and TGI in HepG2 tumor bearing humanized mice
Procedure: (§1) Each group contains five mice. The human hepatocellular carcinoma cell line HepG2 were subcutaneously inoculated to the advanced immune deficiency mice. Total of 30 mice were included in this study.
2.2. […] The subcutaneous injection volume was […].
(§2) 3.1. […] The injection was performed using insulin syringe with the dosage of 10 mg/kg (Dosage of injection was changed to 20 mg/kg from Day 15) and injection volume of 10 mL/kg. […] The reference item was administered for G1. The procedure followed the standards of sample administration.
(§3) 3.2. The test item anti-hPD-L1 antibody or reference items were intraperitoneally injected to the mice on Day 8 after the inoculation of tumor cells. The injection was performed using insulin syringe with the dosage of 10 mg/kg (Dosage of injection was changed to 20 mg/kg from Day 15) and injection volume of 10 mL/kg. The test item anti-hPD-L1 was continuously administered on Day 8, 11, 15, 18, 22, 25, 29 and 32 for G4 and G6. The reference item was administered for G1. The procedure followed the standards of sample administration.
(§4) 3.3. […] The injection was performed using insulin syringe with the dosage of 1 mg/kg and injection volume of 5 mL/kg. […] The reference item was administered for G1. The procedure followed the standards of sample administration.
The measurement was performed from the next day of the inoculation. The tumor volumes were measured and recorded twice a week (Mon., Thur.). Tumor volume was calculated by ellipsoid equation according to the records ((major axis×minor axis×minor axis)×(π/6)).
Tumor volumes were used to calculate tumor growth inhibition (TGI) rates according to the following formula: TGI (%)=[1−(Ti−T0)/(Ci−C0)]×100, where Ti and Ci indicate the mean tumor volume in the treatment groups and vehicle group at the end of the experiment (Day 35). Whereas, T0 and C0 indicate the mean tumor volumes in the treatment group and vehicle group at the beginning of the experiment (Day 1).
(§5) Mice were sacrificed by CO2 euthanasia at the end of the study duration, and the connective tissue around tumor was resected. The tumor samples were then removed and weighed. The half tissue was fixed in 10% formaldehyde and then embedded in paraffin; the other half was prepared for the isolation of tumor-infiltrating lymphocytes (TILs).

[1] = Example 1: body weight and mortality of HepG2 tumor bearing humanized mice; conditions: for Body Weight, Mean: OBI-3424 1 mg/kg IV, antibody 10 mg/kg IP (20 from Day 15)
Procedure: as §1, §2, §3, §4
The measurement was performed from the next day of the inoculation. The animal body weights were measured and recorded twice per week.

[2] = system: CD8^+ cytotoxic T cells (CTL) in tumor-infiltrating lymphocytes; assay: Example 1: flow cytometry, percentage of CTL cells in TILs
Procedure: as §5
(§6) The half of mouse tumors were dissected into smaller fragments using scalpels and then digested with a cocktail of collagenase, DNase I, and Hyaluronidase (Collagenase #C5138, DNase I #D5025, Hyaluronidase #H6254, SigmaAldrich) for at least 2 hours.
(§7) Cells were stained with the fluorescently conjugated surface antibodies and incubated for 30 minutes at 4° C., and then resuspended in staining buffer for flow cytometric analysis. Flow cytometry was done using a Navios EX Flow Cytometer (Beckman Coulter). Data were analyzed using the Kaluza Analysis Software (Beckman Coulter).

[3] = system: CD4^+ T helper cells in tumor-infiltrating lymphocytes; assay: Example 1: flow cytometry, percentage of TH cells in TILs; conditions: individual mice
Procedure: as §5, §6, §7

[4] = system: NK cells in tumor-infiltrating lymphocytes; assay: Example 1: flow cytometry, percentage of NK cells in TILs; conditions: individual mice
Procedure: as §5, §6, §7

[5] = system: PD-L1^+ cells in tumor-infiltrating lymphocytes; assay: Example 1: flow cytometry, percentage of PD-L1 cells in TILs; conditions: individual animal
Procedure: as §5, §6, §7

[6] = TILs, flow cytometer, individual mice
[7] = TILs, gate CD45^+CD8^+ cells, individual mice

## anti-hPD-L1: Anti-Human PD-L1 antibody, Avelumab
HepG2 tumor; D 1, group mean, OBI-3424 1 mg/kg IV, antibody 10 mg/kg IP (20 from Day 15)
  Tumor volume, Mean: 409.71 mm^3
HepG2 tumor; D 4, group mean, OBI-3424 1 mg/kg IV, antibody 10 mg/kg IP (20 from Day 15)
  Tumor volume, Mean: 316.07 mm^3
HepG2 tumor; D 7, group mean, OBI-3424 1 mg/kg IV, antibody 10 mg/kg IP (20 from Day 15)
  Tumor volume, Mean: 304.50 mm^3
HepG2 tumor; D 11, group mean, OBI-3424 1 mg/kg IV, antibody 10 mg/kg IP (20 from Day 15)
  Tumor volume, Mean: 342.83 mm^3
HepG2 tumor; D 14, group mean, OBI-3424 1 mg/kg IV, antibody 10 mg/kg IP (20 from Day 15)
  Tumor volume, Mean: 371.47 mm^3
HepG2 tumor; D 18, group mean, OBI-3424 1 mg/kg IV, antibody 10 mg/kg IP (20 from Day 15)
  Tumor volume, Mean: 491.18 mm^3
HepG2 tumor; D 21, group mean, OBI-3424 1 mg/kg IV, antibody 10 mg/kg IP (20 from Day 15)
  Tumor volume, Mean: 675.33 mm^3
HepG2 tumor; D 25, group mean, OBI-3424 1 mg/kg IV, antibody 10 mg/kg IP (20 from Day 15)
  Tumor volume, Mean: 812.95 mm^3
HepG2 tumor; D 28, group mean, OBI-3424 1 mg/kg IV, antibody 10 mg/kg IP (20 from Day 15)
  Tumor volume, Mean: 866.97 mm^3
HepG2 tumor; D 32, group mean, OBI-3424 1 mg/kg IV, antibody 10 mg/kg IP (20 from Day 15)
  Tumor volume, Mean: 1155.84 mm^3
HepG2 tumor; D 35, group mean (mean±SEM), OBI-3424 1 mg/kg IV, antibody 10 mg/kg IP (20 from Day 15)
  Tumor volume, Mean: 1148.64±193.00 mm^3 and 1148.64 mm^3
HepG2 tumor; D 35, group mean, OBI-3424 1 mg/kg IV, antibody 10 mg/kg IP (20 from Day 15)
  Tumor weight, Mean: *1010.73 mg
HepG2 tumor; Day 35, vs vehicle (G1), Student's t-test
  mean tumor volume compared with vehicle (in words): No statistically significant difference
HepG2 tumor; HepG2 humanized mouse model
  effect on tumor growth (conclusion in words): no effect on tumor growth
HepG2 tumor; from mean tumor volumes Day 35 vs Day 1, relative to vehicle, OBI-3424 1 mg/kg IV, antibody 10 mg/kg IP (20 from Day 15)
  TGI: 35.60%
[1]; Day 0, group mean
  Body Weight, Mean: 22.87 g
[1]; Day 1, group mean
  Body Weight, Mean: 22.73 g
[1]; Day 4, group mean
  Body Weight, Mean: 23.32 g
[1]; Day 7, group mean
  Body Weight, Mean: 23.48 g
[1]; Day 11, group mean
  Body Weight, Mean: 24.17 g
[1]; Day 14, group mean
  Body Weight, Mean: 23.74 g
[1]; Day 18, group mean
  Body Weight, Mean: 23.56 g
[1]; Day 21, group mean
  Body Weight, Mean: 23.37 g
[1]; Day 25, group mean
  Body Weight, Mean: 23.70 g
[1]; Day 28, group mean
  Body Weight, Mean: 23.57 g
[1]; Day 32, group mean
  Body Weight, Mean: 22.55 g
[1]; Day 35, group mean
  Body Weight, Mean: 23.35 g
[1]; one mouse (MI052) of G4
  mortality: found dead on Day 34
[2]; Example 1, TILs at sacrifice, flow cytometry
  CD8^+ cytotoxic T cells (CTL) population in tumors compared with vehicle (in words): not observed
[2]; [6]
  CD25^+ CTL cells (CD45^+CD8^+ CD25^+) Total %: 0.27% and 0.30% and 0.21% and 0.63%
  CTL cells (CD45^+CD8^+) Total %: 14.00% and 18.51% and 11.85% and 16.01%
  PD-1^+ CTL cells (CD45^+CD8^+ PD-1^+) Total %: 17.16% and 16.84% and 12.16% and 16.68%
[2]; TILs, gate CD45^+ cells, individual mice
  CTL cells (CD45^+CD8^+) CD45^+ Gated %: 57.51% and 57.17% and 56.56% and 70.33%
[2]; [7]
  CD25^+ CTL cells (CD45^+CD8^+ CD25^+) CTL Gated %: 1.93% and 1.59% and 1.77% and 3.90%
  PD-1^+ CTL cells (CD45^+CD8^+ PD-1^+) CTL Gated %: 97.44% and 88.98% and 94.63% and 98.61%
[2]; TILs, individual mice
  CD25^+ CTL cells (CD45^+CD8^+ CD25^+) Cell count: 0.33 ×10^5 and 0.66 ×10^5 and 0.37 ×10^5 and 0.45 ×10^5
  CTL cells (CD45^+CD8^+) Cell count: 17.08 ×10^5 and 40.72 ×10^5 and 20.97 ×10^5 and 11.56 ×10^5
  PD-1^+ CTL cells (CD45^+CD8^+ PD-1^+) Cell count: 20.94 ×10^5 and 37.05 ×10^5 and 21.52 ×10^5 and 12.04 ×10^5
[3]; flow cytometer
  CD25^+ TH cells (CD45^+CD4^+ CD25^+) Total %: 1.19% and 1.34% and 1.01% and 1.14%
  PD-1^+ TH cells (CD45^+CD4^+ PD-1^+) Total %: 10.85% and 11.67% and 6.66% and 15.38%
  TH cells (CD45^+CD4^+) Total %: 9.82% and 12.42% and 6.81% and 15.92%
[3]; gate CD45^+ cells
  TH cells (CD45^+CD4^+) CD45^+ Gated %: 40.34% and 38.36% and 32.51% and 69.93%
[3]; gate CD45^+CD4^+ cells
  CD25^+ TH cells (CD45^+CD4^+CD25^+) TH Gated %: 12.12% and 10.75% and 14.76% and 7.16%
  PD-1^+ TH cells (CD45^+CD4^+ PD-1^+) TH Gated %: 99.40% (2×) and 99.02% and 99.19%
[3]
  CD25^+ TH cells (CD45^+CD4^+ CD25^+) Cell count: 1.45 ×10^5 and 2.95 ×10^5 and 1.79 ×10^5 and 0.82 ×10^5
  PD-1^+ TH cells (CD45^+CD4^+ PD-1^+) Cell count: 13.24 ×10^5 and 25.67 ×10^5 and 11.79 ×10^5 and 11.10 ×10^5
  TH cells (CD45^+CD4^+) Cell count: 11.98 ×10^5 and 27.32 ×10^5 and 12.05 ×10^5 and 11.49 ×10^5
[4]; flow cytometer
  CD16^+ NK cells (CD45^+CD56^+ CD16^+) Total %: 0.44% and 0.80% and 0.62% and 0.48%
  NK cells (CD45^+CD56^+) Total %: 1.67% and 2.61% and 1.42% and 1.80%
  PD-1^+ NK cells (CD45^+CD56^+PD-1^+) Total %: 2.28% (2×) and 2.10% and 1.78%
[4]; gate CD45^+ cells
  NK cells (CD45^+CD56^+) CD45^+ Gated %: 9.51% and 10.84% and 12.49% and 8.78%
[4]; gate CD45^+CD56^+ cells
  CD16^+ NK cells (CD45^+CD56^+ CD16^+) NK Gated %: 26.13% and 30.65% and 43.46% and 26.39%
  PD-1^+ NK cells (CD45^+CD56^+PD-1^+) NK Gated %: 99.56% and 97.23% and 88.77% and 91.52%
[4]
  CD16^+ NK cells (CD45^+CD56^+ CD16^+) Cell count: 0.54 ×10^5 and 1.76 ×10^5 and 1.10 ×10^5 and 0.35 ×10^5
  NK cells (CD45^+CD56^+) Cell count: 2.04 ×10^5 and 5.74 ×10^5 and 2.51 ×10^5 and 1.30 ×10^5
  PD-1^+ NK cells (CD45^+CD56^+PD-1^+) Cell count: 2.78 ×10^5 and 5.02 ×10^5 and 3.72 ×10^5 and 1.29 ×10^5
[5]
  CD45^+ cells Cell count (×10^6): 2.97 ×10^6 and 7.12 ×10^6 and 3.71 ×10^6 and 1.64 ×10^6
  CD45^+ cells Gated %: 34.93% and 47.08% and 31.41% and 28.59%
  CD45^+ cells Total %: 24.35% and 32.38% and 20.95% and 22.77%
  Total PD-L1^+ cells (PD-L1^+) Cell count (×10^5): 1.35 ×10^5 and 3.98 ×10^5 and 15.58 ×10^5 and 12.17 ×10^5
  Total PD-L1^+ cells (PD-L1^+), Total %: 1.11% and 1.81% and 8.80% and 16.86%
  Total PD-L1^+ cells (PD-L1^+), Total cells Gated %: 1.43% and 2.38% and 11.79% and 19.02%
  Total cells Cell count (×10^6): 9.42 ×10^6 and 16.72 ×10^6 and 13.21 ×10^6 and 6.40 ×10^6
  Total cells Gated %: 77.18% and 75.98% and 74.62% and 88.63%
  Total cells Total %: 77.18% and 75.98% and 74.62% and 88.63%
